Experiment [1] is described as follows: microbe, parasite or virus in culture. It is filed as functional. To be noted: Mycobacterium tuberculosis.
In a further experiment the test system is CHO. As to the kind of experiment: CHO cell viability loss, potency – luminescence, cytotoxicity control for TLR9-MyD88 binding inhibitor project, dose response (AID 588339).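 Note: CHO cells stably coexpressing TLR9 and MyD88 fusions from primary screen; compound exposure lasted 48 hours before viability readout.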 It is filed as functional, cell-based, hamster. To be noted: Cricetulus griseus.
A further experiment relates to INS1. As to the kind of experiment: INS-1E survival protection against cytokine death – cell-based, luminescence, retest, dose response (AID 449756).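 Note: cell death triggered by IL-1 beta plus TNF-alpha plus IFN-gamma mixture; protective hits raise ATP signal compared with cytokine alone wells.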 To be noted: Rattus norvegicus. It is filed as functional.
Experiment [2] in a line: Luminescence Cell-Based Dose Retest to Confirm Inhibitors of Cancer Stem Cells. [Related pubchem assays (depositor defined):AID2717, AID2721]. The format is functional. Particulars: Homo sapiens.
The target in the next experiment is Genome polyprotein (dengue virus type 2, UniProt P29990). As to the kind of experiment: flavivirus cap methylation enzyme inhibition – biochemical, confirmation dose response, primary screen (AID 588689). It is filed as functional.
In another experiment the target is Beta Lactamase (Pseudomonas aeruginosa, UniProt Q932Y6). As to the kind of experiment: BLA reporter interference, concentration series – BLA reporter cells, FRET fluorescence, artefact control for TLR9-MyD88 binding inhibitor project, dose response (AID 588341).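 Note: cell based assay in CHO-K1 cells stably expressing beta-lactamase.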 It is filed as cell-based.
In experiment [3] the target is Protein disulfide-isomerase (Homo sapiens, UniProt P07237). As to the kind of experiment: inhibition of PDI-driven insulin aggregation – biochemical, turbidity, absorbance, cherry-picked samples, dose response (AID 602350). It is filed as functional.
Experiment [4] concerns the target DNA dC->dU-editing enzyme APOBEC-3G (Homo sapiens, UniProt Q9HC16). As to the kind of experiment: inhibition of APOBEC3G ssDNA deamination – biochemical, fluorescence, single-stranded DNA substrate, SAR follow-up (AID 602136). The format is functional. To be noted: read-out: IC50_Mean.
In experiment [5] the target is DNA dC->dU-editing enzyme APOBEC-3A (Homo sapiens, UniProt P31941). As to the kind of experiment: SAR analysis of small molecule inhibitors of APOBEC3A DNA Deaminase via a fluorescence-based single-stranded DNA deaminase assay. It is filed as functional. To be noted: read-out: IC50_Mean.
The target in experiment [6] is T1, Sentrin-specific protease 6 (Homo sapiens, UniProt Q9GZR1).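 Note: Luminescence-based dose-response confirmatory assay of SENP6 inhibition, following up an ultra-high-throughput screen.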
T1 sequence (Q9GZR1 whole entry): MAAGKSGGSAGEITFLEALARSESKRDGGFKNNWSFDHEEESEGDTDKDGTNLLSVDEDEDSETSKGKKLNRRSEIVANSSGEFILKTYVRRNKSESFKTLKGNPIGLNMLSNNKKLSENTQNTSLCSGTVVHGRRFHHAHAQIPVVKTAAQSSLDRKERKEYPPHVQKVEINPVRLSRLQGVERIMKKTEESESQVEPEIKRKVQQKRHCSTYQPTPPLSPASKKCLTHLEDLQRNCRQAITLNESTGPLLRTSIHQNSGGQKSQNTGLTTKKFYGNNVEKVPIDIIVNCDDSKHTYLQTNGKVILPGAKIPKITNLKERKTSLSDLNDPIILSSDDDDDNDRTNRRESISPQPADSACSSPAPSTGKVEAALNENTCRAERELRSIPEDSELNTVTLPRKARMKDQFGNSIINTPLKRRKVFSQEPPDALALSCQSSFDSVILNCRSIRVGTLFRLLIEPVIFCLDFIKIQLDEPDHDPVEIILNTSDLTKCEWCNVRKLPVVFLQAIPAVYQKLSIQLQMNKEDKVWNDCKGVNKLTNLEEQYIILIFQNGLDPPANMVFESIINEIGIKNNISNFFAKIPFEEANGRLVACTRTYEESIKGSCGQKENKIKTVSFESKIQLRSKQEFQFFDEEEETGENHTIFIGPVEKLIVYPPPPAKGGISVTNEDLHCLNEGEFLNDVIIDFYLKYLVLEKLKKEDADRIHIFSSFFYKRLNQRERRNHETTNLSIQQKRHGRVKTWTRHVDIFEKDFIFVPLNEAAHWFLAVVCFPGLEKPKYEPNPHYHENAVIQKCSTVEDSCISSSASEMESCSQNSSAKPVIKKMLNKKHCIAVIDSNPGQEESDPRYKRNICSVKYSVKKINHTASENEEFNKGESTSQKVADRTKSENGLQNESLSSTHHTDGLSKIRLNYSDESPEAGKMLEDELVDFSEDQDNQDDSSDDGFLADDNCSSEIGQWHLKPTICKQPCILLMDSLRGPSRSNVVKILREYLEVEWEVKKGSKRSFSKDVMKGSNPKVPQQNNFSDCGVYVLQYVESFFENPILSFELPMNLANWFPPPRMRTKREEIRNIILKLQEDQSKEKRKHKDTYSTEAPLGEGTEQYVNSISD
It is filed as functional.

For experiment [7], the target named is T2, Sentrin-specific protease 7 (Homo sapiens, UniProt Q9BQF6).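 Note: Luminescence-based dose-response confirmation of ultra-high-throughput screening hits, measuring inhibition of SENP7.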
T2 sequence (Q9BQF6 whole entry): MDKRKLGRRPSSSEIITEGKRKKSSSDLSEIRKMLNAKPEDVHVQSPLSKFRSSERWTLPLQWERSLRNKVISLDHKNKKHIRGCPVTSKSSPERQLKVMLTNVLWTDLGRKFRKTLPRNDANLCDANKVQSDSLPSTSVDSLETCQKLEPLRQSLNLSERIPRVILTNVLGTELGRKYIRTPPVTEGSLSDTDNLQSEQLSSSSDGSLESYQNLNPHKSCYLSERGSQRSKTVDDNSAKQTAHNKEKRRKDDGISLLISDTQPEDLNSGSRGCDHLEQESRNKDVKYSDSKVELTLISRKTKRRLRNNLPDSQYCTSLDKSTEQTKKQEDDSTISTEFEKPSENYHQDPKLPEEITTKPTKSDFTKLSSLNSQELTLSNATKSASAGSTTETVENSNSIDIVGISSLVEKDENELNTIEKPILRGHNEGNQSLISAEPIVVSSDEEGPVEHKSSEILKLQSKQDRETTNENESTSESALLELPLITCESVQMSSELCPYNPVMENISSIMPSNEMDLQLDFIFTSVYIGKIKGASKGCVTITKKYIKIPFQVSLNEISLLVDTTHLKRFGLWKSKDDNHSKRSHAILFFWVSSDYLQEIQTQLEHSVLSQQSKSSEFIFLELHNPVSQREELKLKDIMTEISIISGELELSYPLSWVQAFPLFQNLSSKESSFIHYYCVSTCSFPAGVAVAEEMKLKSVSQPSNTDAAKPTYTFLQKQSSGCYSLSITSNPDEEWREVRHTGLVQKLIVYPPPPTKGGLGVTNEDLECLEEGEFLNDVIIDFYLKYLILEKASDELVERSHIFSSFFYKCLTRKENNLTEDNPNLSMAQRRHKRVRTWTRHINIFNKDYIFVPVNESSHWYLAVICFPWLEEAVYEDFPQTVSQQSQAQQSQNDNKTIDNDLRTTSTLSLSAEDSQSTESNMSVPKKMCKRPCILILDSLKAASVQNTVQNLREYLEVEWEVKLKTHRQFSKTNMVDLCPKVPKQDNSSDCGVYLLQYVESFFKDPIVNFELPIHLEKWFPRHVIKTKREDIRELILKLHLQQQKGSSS
It is filed as functional.

Experiment [8] deals with T3, Sentrin-specific protease 8 (Homo sapiens, UniProt Q96LD8).
T3 sequence (Q96LD8 whole entry): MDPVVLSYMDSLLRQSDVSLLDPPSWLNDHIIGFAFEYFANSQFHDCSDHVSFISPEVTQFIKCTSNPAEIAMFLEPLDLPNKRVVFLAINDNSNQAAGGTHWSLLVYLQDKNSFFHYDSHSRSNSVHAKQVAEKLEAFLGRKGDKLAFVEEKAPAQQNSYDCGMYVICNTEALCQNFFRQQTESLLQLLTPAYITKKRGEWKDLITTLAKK
The format is functional.

A further experiment deals with T4, Caspase-3 (Homo sapiens, UniProt P42574).
T4 sequence (P42574 whole entry): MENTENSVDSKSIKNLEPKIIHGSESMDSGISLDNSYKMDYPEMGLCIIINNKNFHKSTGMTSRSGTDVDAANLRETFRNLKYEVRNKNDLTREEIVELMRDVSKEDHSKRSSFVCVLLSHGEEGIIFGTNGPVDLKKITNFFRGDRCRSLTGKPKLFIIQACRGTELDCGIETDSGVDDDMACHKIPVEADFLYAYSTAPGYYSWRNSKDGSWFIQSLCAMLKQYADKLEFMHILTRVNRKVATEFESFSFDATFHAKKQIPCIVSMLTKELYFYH
It is filed as functional.

In another experiment the target is Cysteine protease ATG4B (Homo sapiens, UniProt Q9Y4P1). The format is functional.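 Note: Fluorescence-based dose-response confirmation assay measuring inhibition of ATG4B activity.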
The next experiment has as its target Phospholipase A2 (Homo sapiens, UniProt P04054). The format is functional.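 Note: confirmatory dose-response counterscreen on phospholipase A2, testing hits that came from an ultra-high-throughput screen for ATG4B inhibitors.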
Experiment [9] has as its target T5, Short transient receptor potential channel 4 (Mus musculus, UniProt Q9QUQ5).
T5 sequence (Q9QUQ5 whole entry): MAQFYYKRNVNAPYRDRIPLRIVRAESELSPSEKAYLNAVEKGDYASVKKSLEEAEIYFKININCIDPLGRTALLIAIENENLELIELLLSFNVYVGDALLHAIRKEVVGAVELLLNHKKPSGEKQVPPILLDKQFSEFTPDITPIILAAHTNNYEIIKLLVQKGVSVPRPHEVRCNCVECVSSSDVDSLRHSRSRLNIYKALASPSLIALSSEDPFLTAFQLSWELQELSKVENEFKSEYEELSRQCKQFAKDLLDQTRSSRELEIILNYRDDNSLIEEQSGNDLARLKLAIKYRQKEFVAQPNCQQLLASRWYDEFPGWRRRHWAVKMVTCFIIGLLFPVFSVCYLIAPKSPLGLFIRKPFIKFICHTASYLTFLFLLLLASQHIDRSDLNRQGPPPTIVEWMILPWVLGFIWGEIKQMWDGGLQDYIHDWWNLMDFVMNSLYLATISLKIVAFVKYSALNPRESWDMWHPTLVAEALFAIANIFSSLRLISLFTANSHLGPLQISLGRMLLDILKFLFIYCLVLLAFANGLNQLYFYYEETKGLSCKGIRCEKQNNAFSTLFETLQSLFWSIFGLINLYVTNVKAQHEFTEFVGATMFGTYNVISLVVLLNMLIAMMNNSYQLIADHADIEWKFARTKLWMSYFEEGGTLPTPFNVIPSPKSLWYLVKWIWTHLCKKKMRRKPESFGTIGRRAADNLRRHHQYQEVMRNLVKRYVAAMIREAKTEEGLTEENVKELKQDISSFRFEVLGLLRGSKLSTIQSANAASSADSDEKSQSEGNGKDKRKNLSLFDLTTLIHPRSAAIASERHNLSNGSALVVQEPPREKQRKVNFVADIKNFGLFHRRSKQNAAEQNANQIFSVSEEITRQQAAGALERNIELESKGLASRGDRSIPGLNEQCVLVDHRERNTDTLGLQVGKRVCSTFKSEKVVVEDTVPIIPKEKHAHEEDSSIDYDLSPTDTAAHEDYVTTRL
As to the kind of experiment: block of DAMGO-driven TRPC4 calcium entry – cell-based, HEK293 TRPC4/mu-opioid, Fluo-4 calcium, dose response (AID 434942).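 Note: potency of inhibitors blocking the TRPC4 calcium response.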 It is filed as functional.

Experiment [10] has as its system Streptococcus sp. 'group A'. As to the kind of experiment: Streptococcus pyogenes SK(-)GAS viability under kanamycin – luminescence, BacTiterGlo, confirmation, counter-screen for streptokinase expression inhibitor project, dose response (AID 1900). The format is functional, organism-based.
A short description of experiment [11]: NIH3T3 cell viability loss – ATP luminescence, mouse fibroblasts, counter-screen, dose response (AID 2010).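 Note: cells exposed to compound for about 90 hours before reading.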 The format is functional, cell-based. For orientation: A counterscreen serves to expose hits that act by an unwanted route or on another target.
The target in experiment [12] is Heat shock protein HSP 90-alpha (Homo sapiens, UniProt P07900). The format is functional, organism-based.
Experiment [13] is described as follows: Trypanosoma cruzi growth suppression in host cells – NIH3T3 host cells, beta-gal luminescence, confirmation (AID 2044).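 Note: intracellular parasites grown in NIH/3T3 mouse fibroblasts as host cells; luminescent beta-galactosidase reporter signal from transgenic T. cruzi replicating inside host cells; inhibitors lower the luminescence signal.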 The format is functional, cell-based.
The test system of the next experiment is Streptococcus. As to the kind of experiment: GAS UMAA2166 growth inhibition – luminescence, BacTiterGlo, counter-screen for streptokinase expression inhibitor project, dose response (AID 1915).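 Note: potency for reduction of bacterial viability or growth.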 It is filed as functional, organism-based.
The target in experiment [14] is T5, Short transient receptor potential channel 4. As to the kind of experiment: calcium entry via TRPC4 opening agents – cell-based, HEK293 TRPC4/mu-opioid, Fluo-4 calcium, dose response (AID 434937). The format is functional.

The record followed here is ChEMBL document CHEMBL1201862, “PubChem BioAssay data set” (2004).

Structures are written as SMILES. Activity calls are given as the source filed them.

By AC50 is commonly meant the concentration at which the activity in the assay is half-maximal. Usually EC50 stands for the concentration that produces a half-maximal response.

Beta Lactamase, sequence (Q932Y6 whole entry): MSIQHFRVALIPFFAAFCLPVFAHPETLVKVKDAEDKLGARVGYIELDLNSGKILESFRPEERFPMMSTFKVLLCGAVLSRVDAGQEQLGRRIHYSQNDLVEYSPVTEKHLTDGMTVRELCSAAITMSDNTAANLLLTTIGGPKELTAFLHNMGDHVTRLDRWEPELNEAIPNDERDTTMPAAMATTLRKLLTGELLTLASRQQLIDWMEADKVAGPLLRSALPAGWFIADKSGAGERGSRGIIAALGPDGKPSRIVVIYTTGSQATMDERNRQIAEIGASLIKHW
DNA dC->dU-editing enzyme APOBEC-3A, sequence (P31941 whole entry): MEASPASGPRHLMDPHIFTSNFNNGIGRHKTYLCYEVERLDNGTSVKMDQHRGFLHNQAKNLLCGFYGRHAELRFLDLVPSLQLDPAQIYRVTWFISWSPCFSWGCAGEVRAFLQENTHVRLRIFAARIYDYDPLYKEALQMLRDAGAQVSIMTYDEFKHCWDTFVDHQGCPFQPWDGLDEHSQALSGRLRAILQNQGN
DNA dC->dU-editing enzyme APOBEC-3G, sequence (Q9HC16 whole entry): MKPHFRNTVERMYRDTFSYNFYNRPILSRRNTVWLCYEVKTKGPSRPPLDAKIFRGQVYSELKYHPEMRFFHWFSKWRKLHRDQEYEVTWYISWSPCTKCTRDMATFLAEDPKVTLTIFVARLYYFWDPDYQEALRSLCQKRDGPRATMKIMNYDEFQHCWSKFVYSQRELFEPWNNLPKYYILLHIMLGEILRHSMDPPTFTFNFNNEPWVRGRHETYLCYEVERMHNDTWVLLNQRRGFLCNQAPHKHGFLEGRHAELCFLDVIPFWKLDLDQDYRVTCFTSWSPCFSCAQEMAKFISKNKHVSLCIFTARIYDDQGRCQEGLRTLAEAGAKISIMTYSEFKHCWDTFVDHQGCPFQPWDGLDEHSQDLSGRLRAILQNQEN
Cysteine protease ATG4B, sequence (Q9Y4P1 whole entry): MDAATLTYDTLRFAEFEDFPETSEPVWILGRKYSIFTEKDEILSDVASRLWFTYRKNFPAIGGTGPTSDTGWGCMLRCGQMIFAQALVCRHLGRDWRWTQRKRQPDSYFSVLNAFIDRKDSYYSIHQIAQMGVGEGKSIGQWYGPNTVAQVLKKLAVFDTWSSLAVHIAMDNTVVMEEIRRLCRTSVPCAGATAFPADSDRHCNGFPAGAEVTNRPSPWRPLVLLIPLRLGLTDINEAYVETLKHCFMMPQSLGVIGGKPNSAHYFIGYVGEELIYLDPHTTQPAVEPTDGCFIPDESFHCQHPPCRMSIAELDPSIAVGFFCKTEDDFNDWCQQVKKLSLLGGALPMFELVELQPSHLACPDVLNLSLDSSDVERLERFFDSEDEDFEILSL
Phospholipase A2, sequence (P04054 whole entry): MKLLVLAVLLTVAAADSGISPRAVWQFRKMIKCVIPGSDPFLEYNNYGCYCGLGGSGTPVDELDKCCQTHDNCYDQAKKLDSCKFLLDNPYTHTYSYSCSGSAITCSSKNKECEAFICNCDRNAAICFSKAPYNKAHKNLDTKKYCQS
Protein disulfide-isomerase, sequence (P07237 whole entry): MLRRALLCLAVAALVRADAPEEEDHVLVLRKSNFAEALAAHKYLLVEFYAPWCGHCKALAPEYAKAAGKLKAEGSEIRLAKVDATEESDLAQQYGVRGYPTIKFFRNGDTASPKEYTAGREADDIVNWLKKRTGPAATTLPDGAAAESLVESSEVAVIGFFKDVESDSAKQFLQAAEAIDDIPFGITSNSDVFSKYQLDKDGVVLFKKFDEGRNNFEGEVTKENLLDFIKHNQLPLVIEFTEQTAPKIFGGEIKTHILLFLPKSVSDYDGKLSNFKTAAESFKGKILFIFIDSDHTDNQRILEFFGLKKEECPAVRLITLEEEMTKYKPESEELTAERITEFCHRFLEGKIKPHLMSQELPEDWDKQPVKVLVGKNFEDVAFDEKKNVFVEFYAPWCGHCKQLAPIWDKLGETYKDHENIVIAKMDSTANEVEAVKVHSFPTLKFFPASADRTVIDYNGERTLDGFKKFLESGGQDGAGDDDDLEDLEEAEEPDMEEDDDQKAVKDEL
Genome polyprotein, sequence (P29990 2492-3391 limits assumed): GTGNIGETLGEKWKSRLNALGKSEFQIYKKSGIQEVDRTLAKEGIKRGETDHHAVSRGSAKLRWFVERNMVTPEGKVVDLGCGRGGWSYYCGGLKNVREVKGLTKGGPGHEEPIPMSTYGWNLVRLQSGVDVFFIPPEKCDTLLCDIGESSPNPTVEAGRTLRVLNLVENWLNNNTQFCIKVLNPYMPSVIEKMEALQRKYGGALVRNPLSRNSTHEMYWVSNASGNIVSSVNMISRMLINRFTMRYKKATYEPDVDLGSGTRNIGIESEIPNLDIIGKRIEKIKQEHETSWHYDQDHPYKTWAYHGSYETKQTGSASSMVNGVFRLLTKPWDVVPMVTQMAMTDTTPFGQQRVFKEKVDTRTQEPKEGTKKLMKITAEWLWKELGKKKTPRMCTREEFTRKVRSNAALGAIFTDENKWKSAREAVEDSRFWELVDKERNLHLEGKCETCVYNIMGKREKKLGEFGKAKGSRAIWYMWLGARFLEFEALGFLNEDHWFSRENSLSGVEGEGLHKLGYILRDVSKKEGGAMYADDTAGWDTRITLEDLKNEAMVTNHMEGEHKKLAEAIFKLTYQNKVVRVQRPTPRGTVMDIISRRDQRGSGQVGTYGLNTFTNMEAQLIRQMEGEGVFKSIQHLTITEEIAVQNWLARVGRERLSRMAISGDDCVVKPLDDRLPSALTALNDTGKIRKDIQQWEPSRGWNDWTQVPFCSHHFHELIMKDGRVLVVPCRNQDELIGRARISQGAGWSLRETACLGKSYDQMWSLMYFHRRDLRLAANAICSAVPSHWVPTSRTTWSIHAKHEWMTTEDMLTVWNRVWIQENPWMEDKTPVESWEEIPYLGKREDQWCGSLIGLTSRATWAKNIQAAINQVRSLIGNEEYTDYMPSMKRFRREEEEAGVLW

In the case of `N#Cc1c([N+](=O)[O-])cc([N+](=O)[O-])cc1S(=O)(=O)Cc1ccccc1`, the CC50 in [1] was > 40 µM (active). Also, the IC50 with CHO is 1.6 µM (active); at Genome polyprotein it was > 100 µM (active); at Beta Lactamase it was 12.1 µM (inactive). In addition, the figures for the AC50 (in the experiment on INS1; in experiment [2]) were 3.59 µM (active) and 1.61 µM (active), respectively.

With `Cc1cccn2c(CN(C)C3CCCc4ccccc43)c(C(=O)N3CCOCC3)nc12` (centres undefined), the half-maximal activity concentration (AC50) in experiment [3] was 19.5 µM (active).

As for `Cc1nc(Cc2nnc(SCC(=O)c3cc(C)n(Cc4ccccc4)c3C)o2)cs1`, the IC50 in experiment [4] and in experiment [5] was > 99 µM (inactive) throughout.

On to `O=C(Nc1ccc(Br)cn1)c1ccc(Br)s1`, for which the IC50 was > 100 µM (inactive) in experiment [6], 6.53 µM (active) in [7], > 100 µM (inactive) in experiment [8] and 20.4 µM (active) on Caspase-3.

Turning to `O=C(O)c1cc(NN=C2c3ccccc3-c3ccccc32)ccc1Cl`, the results for the IC50 on Cysteine protease ATG4B and on Phospholipase A2 were 9.33 µM (active) and 9.27 µM (active), respectively. Moreover, the EC50 in [9] is 2.99 µM (active).

For the compound `O=[N+]([O-])c1ccc(N2N=C(c3ccccc3)CC2c2ccccc2O)cc1` (centres undefined), the IC50 was 28.5 µM (inactive) in the experiment on CHO and 4.58 µM (active) on Beta Lactamase. The EC50 is 2.31 µM (active) in [10], > 60 µM (not active) in experiment [11], 1.45 µM (active) in experiment [13] and 3.46 µM (active) in the experiment with Streptococcus. Moreover, the AC50 is 2.65 µM (active) in [2] and 3.31 µM (active) in experiment [12].

In the case of `COc1ccc2c(Cl)c(-c3nnc4n3CCCCC4)sc2c1`, the IC50 in [4] and in [5] was > 99 µM (inactive) each time. In experiment [14], the EC50 was 1.88 µM (active).

In the case of `O=C(CSc1nnc(COc2ccc(Cl)cc2)n1Cc1ccco1)c1ccccc1F`, the IC50 on Cysteine protease ATG4B was 2.36 µM (active); on Phospholipase A2, 55.7 µM (inactive).
